Assay results published in paper PMC9399028 (European Journal of Nuclear Medicine and Molecular Imaging, 2022).
“Also recorded” adds a separate entry of the source. Where two headings read alike, the source gives them in different places.

How the values were obtained:
Human recombinant MAO-B = biological target: T1, Human recombinant MAO-B (Homo sapiens, UniProt P27338); assay: Saturation binding of radioligand to MAO-B microsomes
T1 construct: purchased Sigma M7441
T1 sequence (P27338 1-520): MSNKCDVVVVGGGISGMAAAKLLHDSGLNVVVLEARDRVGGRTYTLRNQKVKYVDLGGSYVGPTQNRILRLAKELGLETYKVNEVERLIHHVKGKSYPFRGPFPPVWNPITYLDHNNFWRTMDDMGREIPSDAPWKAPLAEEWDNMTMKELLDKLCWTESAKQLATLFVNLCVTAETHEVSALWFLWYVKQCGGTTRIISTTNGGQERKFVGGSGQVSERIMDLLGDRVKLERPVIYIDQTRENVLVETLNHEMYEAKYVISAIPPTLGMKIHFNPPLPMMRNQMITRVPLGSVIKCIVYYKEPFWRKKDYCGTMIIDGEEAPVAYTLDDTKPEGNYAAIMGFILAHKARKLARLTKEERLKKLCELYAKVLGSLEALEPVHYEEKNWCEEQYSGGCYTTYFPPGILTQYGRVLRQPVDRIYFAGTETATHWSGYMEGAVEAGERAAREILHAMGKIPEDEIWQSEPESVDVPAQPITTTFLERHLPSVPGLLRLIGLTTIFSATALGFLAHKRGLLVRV
Description: (§1) The dissociation constant (Kd) was determined by saturation binding, in which the total and non-specific binding of the radioligand was measured at various concentrations. Human recombinant MAO-A, MAO-B, and control microsomes were acquired from Sigma (M7316, M7441, and M7566, respectively). All microsome preparations were at a concentration of 5 mg protein/mL. The reaction mixture (250 μL) contained protein target and ^18F-radioligand, serially diluted in PBS, pH 7.4; assays were performed in PBS (0.01% bovine serum albumin [BSA]) in 96-well polypropylene microplates. […] . Filters were assayed for radioactivity in a Wizard 2480 automatic gamma-counter (Perkin Elmer).

isolated human PHF = isolated human PHF (Homo sapiens, UniProt P10636); assay: Saturation binding of radioligand to isolated PHF
Description: Purified, soluble PHF was isolated from AD brain tissue using a protocol modified from the procedure described by Jicha et al.. Briefly, homogenized AD cortex underwent high pressure batch–gas expansion using a Parr Cell disruption bomb and centrifuged at […]. […] Bound PHF was eluted with two column volumes of 3M potassium thiocyanate. Isolated PHF was analyzed in a tau MC-1 ELISA and a tau AT8 ELISA, which recognizes tau phosphorylated at both Ser 202 and Thr 205 [3].
as §1

Human recombinant MAO-A = biological target: T2, Human recombinant MAO-A (Homo sapiens, UniProt P21397); assay: Saturation binding of radioligand to MAO-A microsomes
T2 construct: purchased Sigma M7316
T2 sequence (P21397 1-527): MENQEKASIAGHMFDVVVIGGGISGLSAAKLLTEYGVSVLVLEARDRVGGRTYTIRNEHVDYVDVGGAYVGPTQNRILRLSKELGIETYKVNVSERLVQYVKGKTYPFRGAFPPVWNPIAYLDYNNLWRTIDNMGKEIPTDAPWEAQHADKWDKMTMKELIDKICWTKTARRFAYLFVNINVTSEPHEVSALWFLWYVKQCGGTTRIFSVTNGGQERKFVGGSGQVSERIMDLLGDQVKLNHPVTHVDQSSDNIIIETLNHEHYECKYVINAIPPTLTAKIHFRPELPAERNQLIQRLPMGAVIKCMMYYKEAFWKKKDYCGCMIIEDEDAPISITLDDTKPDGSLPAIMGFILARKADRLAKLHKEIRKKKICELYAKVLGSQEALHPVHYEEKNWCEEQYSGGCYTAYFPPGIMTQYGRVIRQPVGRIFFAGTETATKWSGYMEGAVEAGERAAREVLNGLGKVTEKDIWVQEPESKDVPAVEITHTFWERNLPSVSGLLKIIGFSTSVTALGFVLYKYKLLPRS
Description: as §1

[1] = tested on: [^18F]flortaucipir binding to normal human brain (temporal cortex sections); assay: [^18F]flortaucipir autoradiography competition binding assay with MAO-A and MAO-B inhibitors; conditions: for IC50: normal (tau NFT negative) human temporal cortex sections, 1.4 nM [^18F]flortaucipir, mild PBS wash, read-out: IC50, inhibition of [^18F]flortaucipir binding (autoradiography)
Description: After 60-min incubation at room temperature, PBS washes (4 × 2 min) were used to remove any unbound ligand. […] Signal intensity (counts/pixel) on each section was measured using Multi Gauge V3.0 Imaging software. Total binding was evaluated by nonlinear regression using GraphPad Prism v8 to determine IC50 values.

[2] = tested on: frozen human brain slices from AD donors (PHF tau-rich) and non-AD control donors; assay: [^18F]flortaucipir autoradiography, stringent vs mild wash conditions; type: binding
Description: Autoradiography was performed on frozen human brain slices from AD donors (N = 3, PHF tau-rich as determined by AT8 immunohistochemistry) and age-matched non-AD control donors (N = 6, devoid of tau NFTs and beta-amyloid neuritic plaques as determined by immunohistochemistry). Brains slices were obtained from the National Disease Research Interchange (Philadelphia, PA).

MAO-A = biological target: T3, MAO-A (Rattus norvegicus, UniProt P21396); assay: In vivo PET imaging in rats with pargyline pre-treatment; conditions: for peak brain activity: at 2 min
T3 construct: Male wild-type Sprague-Dawley rats; from tissue; host or cells: brain of living wild-type Sprague-Dawley rats
T3 sequence (P21396 1-526): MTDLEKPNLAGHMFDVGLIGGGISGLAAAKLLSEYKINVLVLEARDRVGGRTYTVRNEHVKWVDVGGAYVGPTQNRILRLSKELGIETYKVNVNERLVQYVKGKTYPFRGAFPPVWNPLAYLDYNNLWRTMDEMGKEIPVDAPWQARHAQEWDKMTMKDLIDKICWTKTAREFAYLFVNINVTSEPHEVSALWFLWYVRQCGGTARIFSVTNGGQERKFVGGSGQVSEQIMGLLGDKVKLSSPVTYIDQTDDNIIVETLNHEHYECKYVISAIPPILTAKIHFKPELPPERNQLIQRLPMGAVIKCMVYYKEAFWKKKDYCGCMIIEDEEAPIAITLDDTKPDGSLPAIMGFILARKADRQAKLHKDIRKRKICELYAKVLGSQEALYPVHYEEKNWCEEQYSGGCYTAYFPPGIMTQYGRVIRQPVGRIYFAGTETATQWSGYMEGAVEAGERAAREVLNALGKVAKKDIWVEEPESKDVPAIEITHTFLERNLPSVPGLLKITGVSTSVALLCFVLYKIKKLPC
Description: All procedures in this study followed the guidelines of the Institutional Animal Care and Use Committee of the University of the Sciences, Philadelphia, PA. A Siemens Inveon Multimodality Scanner was used for micro-PET/computed tomography (CT) imaging. Male wild-type Sprague-Dawley rats (128 ± 58 g) were anesthetized with 3% isoflurane with oxygen. Rats were administered [^18F]fluoroethyl-harmol or [^18F]flortaucipir via tail vein injection (7.4-14.8MBq [200–400 μCi] in a total volume of 200 μL). For blocking studies, rats were pre-treated with pargyline (Sigma-Aldrich, 50 mg/kg i.p.) 30 min prior to scans; control rats were pre-treated with 0.9% saline injection (Hospira, i.p.). A short high-resolution CT scan was first conducted for anatomical registration, followed by a 120-min dynamic PET scan. PET images were generated for each minute of the acquisition time. Uptake of the tracers was determined by visually drawing regions of interest based on the fused PET/CT images, and corresponding activity values were determined using Inveon Research Workplace software. All values are represented as % injected dose per gram (ID/g). A total of 6 rats were studied (3 control, 3 pre-treated) for [^18F]fluoroethyl-harmol and 8 rats for [^18F]flortaucipir (4 control, 4 pre-treated).

MAO-B microsomes [3] = biological target: T4, MAO-B microsomes (Homo sapiens, UniProt P27338); assay: Competition binding, displacement of safinamide from MAO-B microsomes (LC-MS); set-up: purchased Sigma M7441
T4 sequence (P27338 1-520): T1 sequence (P27338 1-520)
Description: IC50 values for each compound were determined by competition binding. […] IC50 values were determined by nonlinear regression analysis using GraphPad Prism.

MAO-B microsomes [4] = biological target: T4, MAO-B microsomes; assay: LC-MS direct saturation binding to MAO-B microsomes
[5] = NSB defined as binding to control microsomes
[6] = NSB defined with 10 μM deprenyl

Chain of isolated human PHF (P10636 623-695 limits assumed): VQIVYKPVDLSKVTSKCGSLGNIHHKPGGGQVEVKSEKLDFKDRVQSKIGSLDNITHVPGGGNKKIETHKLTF

SMILES: CNc1ccc(-c2ccc3cc(OC[C@H](O)CF)ccc3n2)cn1 [[^18F]THK5351]
- Kd (Human recombinant MAO-B; [5]): 37 ± 1.8 nM
- Kd (Human recombinant MAO-B; NSB defined with 1 μM THK5351): 40 ± 0.7 nM
- Kd (Human recombinant MAO-B; [6]): 39 ± 1.1 nM

SMILES: CNc1ccc(-c2ccc3cc(OC[C@H](O)C[18F])ccc3n2)cn1 [[^18F]THK5351]
- Bmax (Human recombinant MAO-B; [5]): 49 ± 6.3 pmol ligand/mg total protein
- Bmax (Human recombinant MAO-B; NSB defined with 1 μM THK5351): 54 ± 3.4 pmol ligand/mg total protein
- Bmax (Human recombinant MAO-B; [6]): 51 ± 5.5 pmol ligand/mg total protein

SMILES: Fc1ccc(-c2ccc3c(c2)[nH]c2ccncc23)cn1 [[^18F]flortaucipir]
- Kd (isolated human PHF): 0.57 nM
- Kd (Human recombinant MAO-A): 2 nM

SMILES: [18F]c1ccc(-c2ccc3c(c2)[nH]c2ccncc23)cn1 [[^18F]flortaucipir]
- fraction of [^18F]flortaucipir bound to normal brain sections that was displaced ([1]; mild wash conditions, remainder non-specific and non-saturable): approximately 50%
- saturability of autoradiography signal on AD tissue [2]: saturable
- saturability of off-target binding, mild wash ([2]; mild wash, AD and control tissue, 1 μM flortaucipir): only partially saturable
- [^18F]flortaucipir binding on tissue, mild wash ([2]; mild washing (PBS), frontal cortex and striatum): observed on both AD and control tissues
- [^18F]flortaucipir binding on tissue, stringent wash ([2]; stringent washing (30% and 70% EtOH), frontal cortex and striatum): observed only on tau NFT-rich AD tissue, not on control tissue
- effect of pargyline pre-treatment on brain uptake and clearance (MAO-A; rats, control vs pargyline 50 mg/kg): nearly identical brain uptake with rapid clearance in both the control and pargyline groups
- specific binding to MAO-B (radioligand saturation) (Human recombinant MAO-B; MAO-B microsomes vs control microsomes or 10 μM deprenyl): no specific binding; also recorded: no significant binding

SMILES: Cc1nccc2c1[nH]c1cc(OCC[18F])ccc12 [[^18F]fluoroethyl-harmol]
- brain activity at 110 min (MAO-A; control rats, 110 min): 2.1 %ID/g
- peak brain activity (MAO-A; control rats, i.v.): 2.3 %ID/g
- peak brain activity (MAO-A; pargyline 50 mg/kg i.p. pre-treated rats): 2.4 %ID/g
- brain activity after washout (MAO-A; pargyline 50 mg/kg i.p. pre-treated rats, by 20 min): 1.0 %ID/g

SMILES: Fc1ccc(-c2ccc3c(c2)[nH]c2ccncc23)cn1 [flortaucipir]
- IC50 [1]: 270 nM
- IC50 (MAO-B microsomes [3]): 1300 nM
- specific binding to MAO-B (LC-MS saturation) (MAO-B microsomes [4]; higher flortaucipir concentrations): no specific binding was observed

SMILES: Cc1nccc2c1[nH]c1cc(OCCF)ccc12 [fluoroethyl-harmol]
- IC50 [1]: 780 nM
- IC50 (MAO-B microsomes [3]; read-out: IC50, displacement of safinamide, 30 nM safinamide, 10 μg MAO-B microsomes): > 10000 nM

SMILES: C[C@H](NCc1ccc(OCc2cccc(F)c2)cc1)C(N)=O [safinamide]
- IC50 [1]: ≥ 10000 nM
- Bmax (MAO-B microsomes [4]; LC-MS, NSB = control microsome): 446 pmol ligand/mg total protein
